One may read the inhibition as the share of the control response that was lost under treatment.

We go through three compounds from patent US20240041899A1, “SOLID PREPARATION” (ASKA Pharmaceutical Co., Ltd., priority 2020, published 2024).

What all share (type): in vivo
Data set [1] relates to rats having the urination disorder associated with diabetes. As to the kind of experiment: Test Example 6: urination disorder model associated with streptozocin-induced diabetes, compound A versus compound C. The conditions noted are these: STZ diabetes model. The procedure:
As described below, a model of a urination disorder associated with streptozocin-induced diabetes was prepared as a urination disorder model in accordance with Test Example 4 to evaluate the effects of the compound A and the compound C on a urination disorder. This model has no benign prostatic hyperplasia and is a model of a urination disorder associated with neuropathy and smooth muscle contraction disorder.
The body weights of Rats (male, Crl:CD(SD), 5-week-old; Charles River Laboratories Japan, Inc.) were measured. On the basis of the body weight, the rats were grouped or divided into two (2) groups. The day after the rats were grouped, a first group received intraperitoneal administration of a citrate buffer (pH 4.5) (10 mL/kg) having a concentration of 0.1 mmol/L, and a second group received intraperitoneal administration of streptozocin (STZ; Sigma-Aldrich) (50 mg/kg). Streptozocin (STZ) was administered in the form of a solution of streptozocin having a concentration of 5 mg/mL in the citrate buffer.
About one (1) week after streptozocin (STZ) was administered, the body weight and the fasting blood glucose were measured. In the streptozocin (STZ) administration group (the second group), individuals having a fasting blood glucose level of not less than 300 mg/dL were used as animals with induced diabetes. These animals with induced diabetes are a model having no abnormality of the prostate (having no benign prostatic hyperplasia). On the basis of the body weight and the fasting blood glucose level, the animals (models) with induced diabetes were grouped or divided into three (3) groups by randomized, multivariable block allocation.
To the three model groups with induced diabetes, a 0.5 v/v % Polysorbate 80 solution (0.5% P) (10 mL/kg), the compound A (3 mg/kg), and the compound C (dutasteride) (0.3 mg/kg) were orally administered, respectively, wherein the administration schedule in all groups was a frequency of once a day, only on weekdays, over four (4) weeks. Moreover, to the above-mentioned first group, a 0.5 v/v % Polysorbate 80 solution (0.5% P) (10 mL/kg) was orally administered in the same administration schedule (normal group). On the last day of administration, a cannula was inserted into and secured to the dome of the bladder under isoflurane anesthesia, and cystometry (Cystometogram, CMG) was conducted in the order of under awake condition and under urethane anesthesia to measure the intravesical pressure, the voided volume, and the residual urine volume. After the completion of the measurement, the blood was collected under deep isoflurane anesthesia, and then the prostate (ventral prostate, dorsolateral prostate) was extracted and each was weighed. Moreover, the blood glucose level in the collected blood was measured.
Normal group: citrate buffer 10 mL/kg (intraperitoneal administration), 0.5% P 10 mL/kg (oral administration) (n=10) • Solvent group (control group): STZ 50 mg/kg (intraperitoneal administration), 0.5% P 10 mL/kg (oral administration) (n=10) • Group A3: STZ 50 mg/kg (intraperitoneal administration), Compound A 3 mg/kg (oral administration) (n=10) • Group C0.3: STZ 50 mg/kg (intraperitoneal administration), Compound C (dutasteride) 0.3 mg/kg (oral administration) (n=10)
Urination parameter: In the same manner as in Test Example 4, the residual urine volume (mL) and the urination efficiency (%) were determined as urination parameters in each urination, and the average value of two measurements was taken as a measured value of each individual.
Prostate weight: In the same manner as in Test Example 4, the weight of the prostate (ventral prostate, dorsolateral prostate, and whole) was converted to a tissue weight per 100 g of the body weight. For Group A3, which received the compound A, and Group C0.3, which received the compound C, the inhibition rate of the weight of the prostate relative to the weight of the prostate in the solvent group was calculated (with one decimal place). […]

A further data set concerns ovariectomized rats. As to the kind of experiment: Test Example 5: antiprogesterone activity, uterine weight associated with rat deciduoma formation. Conditions: Rattus norvegicus, 192 h; ovariectomized rats, estrone + progesterone, oral 3 mg/kg once a day 8 days, compared with the solvent group; read-out: inhibition rate (increase of uterine weight, deciduoma formation). The procedure: For the compound A and the compound D (mifepristone), the antiprogesterone activity was measured. Specifically, a sex hormone and a test substance were repeatedly administered to ovariectomized rats as a test system to examine the antiprogesterone action (antiprogesterone activity) based on, as an index, the fluctuation of the uterine weight (the inhibitory action relative to the increase of the weight) associated with rat deciduoma formation.
More specifically, rats (female, Crl:CD(SD), 5-week-old: Charles River Laboratories Japan, Inc.) were subjected to ovariectomy, and from one (1) week after the ovariectomy, a high dose estrone of 5 μg/one animal was hypodermically administered to the rats once a day for three (3) days. From the day after one day rest period, the rats received, once a day over eight (8) days, hypodermic administration of a low dose estrone (1 μg/one animal), intramuscular administration of progesterone (6 mg/kg), and oral administration of a test substance. In the middle of the administration, on Day 4 of the start of administration, the rats were subjected to a stimulation treatment of decidualization reaction to the right uterus. The day after the final administration, the uterine weight (right uterine body) was measured (n=6). Group E was subjected to ovariectomy and a stimulation treatment of decidualization reaction but was not subjected to a hormone treatment.
Group E: rats with ovariectomy without hormone treatment 0.5 v/v % Polysorbate 80 solution, 10 mL/kg (n=6) • Solvent group (control group): 0.5 v/v % Polysorbate 80 solution, 10 mL/kg (n=6) • Group A3: Compound A, 3 mg/kg (n=6) • Group A10: Compound A, 10 mg/kg (n=6) • Group A30: Compound A, 30 mg/kg (n=6) • Group D: Compound D (mifepristone), 3 mg/kg (n=6)

For data set [2], the system named is lower urinary tract obstruction model of rats (female). As to the kind of experiment: Test Example 1: urination function in lower urinary tract obstruction model of female rats. Conditions: oral once a day 2 weeks, Compound B 3 mg/kg and 10 mg/kg. The text has this:
A lower urinary tract obstruction model of rats was used as a test system. A test substance was orally administered to the lower urinary tract obstruction model repeatedly over two (2) weeks to examine the action on the urination function in the lower urinary tract obstruction model.
More specifically, the rats (female, Crl:CD(SD), 8-week-old; Charles River Laboratories Japan, Inc.) were operated to form lower urinary tract obstruction and repeatedly received oral administration of the test substance at a frequency of once a day over two (2) weeks. After the completion of the administration, each rat was subjected to bladder catheterization under anesthesia, cystometry under no anesthesia, then cystometry under urethane anesthesia, and euthanasia under deep anesthesia, and the tissues (bladder, kidney) of the rat were extracted or surgically removed. As a normal group, the rats without operation for forming lower urinary tract obstruction were used.
The test system, the test substances, and the dosage are as follows. • Normal group: 0.5 v/v % Polysorbate 80 solution, 10 mL/kg (n=6) • Solvent group (control group): 0.5 v/v % Polysorbate 80 solution, 10 mL/kg (n=15) • Group A: Compound A, 10 mg/kg (n=15) • Group B3: Compound B, 3 mg/kg (n=7) • Group B10: Compound B, 10 mg/kg (n=7)
After urination, the residual urine was aspirated from the outlet end of the catheter placed in the bladder to measure the volume (mL) of the residual urine.
After urination, the weight of the voided urine was measured to determine the voided volume (g=mL), and then the urination efficiency was calculated by the following equation: Urination efficiency (%)=[(Voided volume (mL))/(Voided volume (mL)+Residual urine volume (mL))]×100
Bladder capacity (mL)=Voided volume (mL)+Residual urine volume (mL)
Moreover, the wet weight of the extracted bladder and that of the extracted kidney were measured.

Setting [3] is: Compound C 0.3 mg/kg, in comparison with the solvent group.
[4] abbreviates: Compound C oral 0.3 mg/kg, 4 weeks.
Setting [5] is: Compound C oral 0.3 mg/kg, relative to solvent group.
Where [6] appears, read: female rats, lower urinary tract obstruction, vs control group.

Consider `C[C@]12C=CC(=O)N[C@@H]1CC[C@@H]1[C@@H]2CC[C@]2(C)[C@@H](C(=O)Nc3cc(C(F)(F)F)ccc3C(F)(F)F)CC[C@@H]12` [Compound C, dutasteride, reference compound], for which, in data set [1] (Compound C 0.3 mg/kg), the “position in nomogram analysis (bladder contraction force)” value is recorded as “at almost the same position as the solvent group” and the “therapeutic effect on diabetes” value is on record as “no therapeutic effect”. Also, in data set [1] (Compound C 0.3 mg/kg, compared with the solvent group (P<0.05)), the “weights of the ventral prostate, the dorsolateral prostate, and the whole prostate” value is “significant decrease”. Moreover, in data set [1] (setting [3]), the “residual urine volume, cystometry (CMG) under awake condition” value was “did not statistically affect” and the “urination efficiency, cystometry (CMG) under awake condition” value is recorded as “did not statistically affect”. In addition, in data set [1] (Compound C 0.3 mg/kg, vs solvent group), the “effect on the blood glucose level” value is recorded as “did not statistically affect”. Besides, the “Prostate weight, ventral prostate” value in data set [1] (Compound C (dutasteride) oral 0.3 mg/kg, 4 weeks) is 58.4 ± 8.4 mg/100 g body weight. Also, in data set [1] (setting [4]), the Blood glucose level is given as 984.2 ± 282.0 mg/dL; the “Prostate weight, dorsolateral prostate” value came to 40.5 ± 6.3 mg/100 g body weight; the “Prostate weight, whole” value is given as 98.9 ± 12.2 mg/100 g body weight. Further, in data set [1] (setting [5]), the “Dorsolateral prostate atrophy rate” value was “(37.5%)”, the “Ventral prostate atrophy rate” value was “(42.7%)” and the “Whole prostate atrophy rate” value is given as “(40.7%)”.

Consider `CC#C[C@]1(O)CC[C@H]2[C@@H]3CCC4=CC(=O)CCC4=C3[C@@H](c3ccc(N(C)C)cc3)C[C@@]21C` [Compound D, mifepristone, reference compound], for which the inhibition at 3 mg/kg in the data set on ovariectomized rats amounted to 89.5%.

Turning to `CC(=O)O[C@]1(C(C)=O)CC[C@H]2[C@@H]3C=C(Cl)C4=CC(=O)OC[C@]4(C)[C@H]3CC[C@@]21C` [Compound B, 17α-acetoxy-6-chloro-2-oxa-4,6-pregnadiene-3,20-dione, reference compound], the survival rate result in data set [2] (female lower urinary tract obstruction rats) is listed as “decreased”. In data set [2] (female rats, lower urinary tract obstruction), the “wet weights of the bladder and the kidney” value is on record as “rather in the direction of increasing”. The residual urine volume entry in data set [2] (female rats, lower urinary tract obstruction, vs control (solvent) group) is on record as “significantly increased”. Also, in data set [2] (setting [6]), the bladder capacity entry was “significantly increased” and the urination efficiency result is “reduced”.
